Consider 13 molecules from patent US8796250B2, “Diaryl ureas for diseases mediated by PDGFR” (Bayer Healthcare LLC, priority 2003, dated 2014).

Where only a bound is given, the exact number is not on record here.

The target in the first assay is T1, mouse PDGFR (PDGFR beta) (Mus musculus, UniProt P05622).
T1 construct: made in house
T1 sequence (P05622 32-1098): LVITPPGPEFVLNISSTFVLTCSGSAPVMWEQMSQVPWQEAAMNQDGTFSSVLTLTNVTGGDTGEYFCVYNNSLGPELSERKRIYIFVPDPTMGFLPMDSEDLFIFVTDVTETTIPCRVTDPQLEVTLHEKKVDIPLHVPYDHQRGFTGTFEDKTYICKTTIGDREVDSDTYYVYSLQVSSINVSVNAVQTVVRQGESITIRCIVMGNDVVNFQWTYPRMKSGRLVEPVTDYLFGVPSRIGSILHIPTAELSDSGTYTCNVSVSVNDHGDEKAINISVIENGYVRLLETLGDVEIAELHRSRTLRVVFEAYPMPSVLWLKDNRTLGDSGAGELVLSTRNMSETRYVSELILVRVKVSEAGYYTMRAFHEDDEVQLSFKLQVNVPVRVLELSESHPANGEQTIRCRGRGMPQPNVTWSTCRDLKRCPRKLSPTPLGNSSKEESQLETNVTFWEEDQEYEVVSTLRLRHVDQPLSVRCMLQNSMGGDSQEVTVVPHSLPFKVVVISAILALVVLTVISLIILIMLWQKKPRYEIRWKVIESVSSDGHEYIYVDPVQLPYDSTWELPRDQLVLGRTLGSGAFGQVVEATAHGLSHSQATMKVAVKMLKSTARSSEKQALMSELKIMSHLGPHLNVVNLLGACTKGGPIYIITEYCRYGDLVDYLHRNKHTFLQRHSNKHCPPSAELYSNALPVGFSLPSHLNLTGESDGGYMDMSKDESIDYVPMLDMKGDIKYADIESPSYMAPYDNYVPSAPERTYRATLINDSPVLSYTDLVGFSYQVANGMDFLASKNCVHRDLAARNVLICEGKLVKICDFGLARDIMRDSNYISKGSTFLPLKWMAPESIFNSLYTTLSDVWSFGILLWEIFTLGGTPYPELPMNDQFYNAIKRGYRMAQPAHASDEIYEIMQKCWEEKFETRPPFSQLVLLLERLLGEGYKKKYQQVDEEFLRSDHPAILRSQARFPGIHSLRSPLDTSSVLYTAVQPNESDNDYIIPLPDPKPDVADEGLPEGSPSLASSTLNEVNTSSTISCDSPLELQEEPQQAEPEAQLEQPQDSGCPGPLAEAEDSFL
Description: Murine PDGFR FRET Biochemical Assay. The following applies: 1 nM mouse PDGFR, 20 μM ATP, TR-FRET; read-out: IC50 in biochemical assay (inhibition of PDGFR).
Description: Reaction is initiated upon addition of enzyme.
Usually IC50 stands for the concentration needed to halve the response being measured. Turning to `CNC(=O)c1cc(Oc2ccc(NC(=O)Nc3ccc(Br)c(C(F)(F)F)c3)c(Cl)c2)ccn1` [N-(4-bromo-3-(trifluoromethyl)phenyl)-N′-(4-(2-(N-methylcarbamoyl)-4-pyridyloxy)-2-chlorophenyl) urea], the IC50 is less than 10 µM.
Same read-out and setting: with `CNC(=O)c1cc(Oc2ccc(NC(=O)Nc3ccc(Br)c(C(F)(F)F)c3)c(F)c2)ccn1` [N-(4-bromo-3-(trifluoromethyl)phenyl)-N′-(4-(2-(N-methylcarbamoyl)-4-pyridyloxy)-2-fluorophenyl) urea] the figure was less than 10 µM; with `CNC(=O)c1cc(Oc2ccc(NC(=O)Nc3ccc(Br)c(C(F)(F)F)c3)cc2)ccn1` [N-(4-bromo-3-(trifluoromethyl)phenyl)-N′-(4-(2-(N-methylcarbamoyl)-4-pyridyloxy)phenyl) urea], less than 10 µM; with `CNC(=O)c1cc(Oc2ccc(NC(=O)Nc3ccc(Cl)c(C(F)(F)F)c3)cc2)cc[n+]1[O-]` [N-(4-chloro-3-(trifluoromethyl)phenyl)-N′-(4-(1-hydroxy-2-(N-methylcarbamoyl)-4-pyridyloxy)phenyl) urea], less than 10 µM.
With `NC(=O)c1cc(Oc2ccc(NC(=O)Nc3ccc(Cl)c(C(F)(F)F)c3)cc2)cc[n+]1[O-]` [N-(4-chloro-3-(trifluoromethyl)phenyl)-N′-(4-(1-hydroxy-2-carbamoyl-4-pyridyloxy)phenyl) urea], the IC50 is less than 10 µM.
In the case of `CNC(=O)c1cc(Oc2ccc(NC(=O)Nc3ccc(Cl)c(C(F)(F)F)c3)c(Cl)c2)ccn1` [N-(4-chloro-3-(trifluoromethyl)phenyl)-N′-(4-(2-(N-methylcarbamoyl)-4-pyridyloxy)-2-chlorophenyl) urea], the IC50 is less than 10 µM.
On the same count and under the same terms, in the case of `CNC(=O)c1cc(Oc2ccc(NC(=O)Nc3ccc(Cl)c(C(F)(F)F)c3)cc2)ccn1` [N-(4-chloro-3-(trifluoromethyl)phenyl)-N′-(4-(2-(N-methylcarbamoyl)-4-pyridyloxy)phenyl) urea] it was less than 10 µM; in that of `NC(=O)c1cc(Oc2ccc(NC(=O)Nc3ccc(Cl)c(C(F)(F)F)c3)cc2)ccn1` [N-(4-chloro-3-(trifluoromethyl)phenyl)-N′-(4-(2-carbamoyl-4-pyridyloxy)phenyl) urea], less than 10 µM.
Take `CNC(=O)c1cc(Oc2ccc(NC(=O)Nc3ccc(F)c(C(F)(F)F)c3)c(F)c2)ccn1` [N-(4-fluoro-3-(trifluoromethyl)phenyl)-N′-(4-(2-(N-methylcarbamoyl)-4-pyridyloxy)-2-fluorophenyl) urea]: the IC50 is less than 10 µM.
On the same count and under the same terms, in the case of `N#Cc1cc(Oc2ccc(NC(=O)Nc3ccc4c(c3)C(F)(F)OC(F)(F)O4)c(F)c2)ccn1` [N-(6-(2,2,4,4-tetrafluoro-4H-benzo[1,3]dioxinyl))-N′-(4-(2-cyano-4-pyridyloxy)-2-fluorophenyl) urea] it was less than 10 µM; in that of `N#Cc1cc(Oc2ccc(NC(=O)Nc3ccc4c(c3)C(F)(F)OC(F)(F)O4)cc2)ccn1` [N-(6-(2,2,4,4-tetrafluoro-4H-benzo[1,3]dioxinyl))-N′-(4-(2-cyano-4-pyridyloxy)phenyl) urea], less than 10 µM.

A further assay deals with T2, PDGFR-beta phosphorylation (Tyr-857) in Aortic SMC stimulated with PDGF BB (Homo sapiens, UniProt P09619).
T2 construct: endogenous in cells; host or cells: Aortic SMC (AoSMC), passages P3-P6
T2 sequence (P09619 33-1106): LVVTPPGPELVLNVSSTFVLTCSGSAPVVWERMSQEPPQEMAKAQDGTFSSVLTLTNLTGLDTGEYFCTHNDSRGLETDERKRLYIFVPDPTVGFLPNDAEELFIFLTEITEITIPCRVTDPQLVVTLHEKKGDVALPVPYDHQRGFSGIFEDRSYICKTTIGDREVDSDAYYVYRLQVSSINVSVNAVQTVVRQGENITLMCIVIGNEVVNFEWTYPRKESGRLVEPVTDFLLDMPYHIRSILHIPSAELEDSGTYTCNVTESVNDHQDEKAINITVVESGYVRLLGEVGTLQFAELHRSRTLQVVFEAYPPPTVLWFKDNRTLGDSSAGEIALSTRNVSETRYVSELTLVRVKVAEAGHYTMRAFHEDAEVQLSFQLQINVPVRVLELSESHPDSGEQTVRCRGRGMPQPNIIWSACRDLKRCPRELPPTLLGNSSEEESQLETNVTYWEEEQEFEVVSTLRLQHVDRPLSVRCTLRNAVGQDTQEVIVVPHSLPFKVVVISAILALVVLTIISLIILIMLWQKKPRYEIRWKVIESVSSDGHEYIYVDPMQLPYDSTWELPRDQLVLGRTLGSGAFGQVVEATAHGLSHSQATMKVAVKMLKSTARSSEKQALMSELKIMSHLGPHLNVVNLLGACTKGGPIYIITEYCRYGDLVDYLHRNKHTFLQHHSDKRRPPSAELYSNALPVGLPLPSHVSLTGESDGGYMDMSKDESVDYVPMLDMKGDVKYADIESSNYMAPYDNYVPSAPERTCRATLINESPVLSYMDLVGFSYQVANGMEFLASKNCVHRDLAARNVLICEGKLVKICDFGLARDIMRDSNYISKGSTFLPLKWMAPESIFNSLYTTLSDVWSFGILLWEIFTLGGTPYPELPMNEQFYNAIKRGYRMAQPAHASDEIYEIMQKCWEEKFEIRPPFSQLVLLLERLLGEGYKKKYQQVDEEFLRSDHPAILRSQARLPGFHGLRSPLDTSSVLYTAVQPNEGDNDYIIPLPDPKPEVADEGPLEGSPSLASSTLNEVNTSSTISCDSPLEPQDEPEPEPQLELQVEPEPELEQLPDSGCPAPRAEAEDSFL
Description: pPDGFR-Beta Sandwich ELISA in AoSMC Cells. To be noted: 1 hr compound, 10 ng/mL PDGF BB for 7 minutes, read-out: IC50 in bioassay of PDGFR inhibition in cells. Format: cell-based. In general terms: An ELISA detects its analyte on a solid surface through an enzyme-linked reagent.
Description: 100K P3-P6 Aortic SMC were plated in each well of 12-well cluster in 1000 uL volume/well of SGM-2 using standard cell culture techniques. Next day, cells were rinsed with 1000 uL D-PBS (Gibco) once, then serum starved in 500 uL SBM (smooth muscle cell basal media) with 0.1% BSA (Sigma, Cat A9576) overnight. Compounds were diluted at a dose range from (10 uM to 1 nM in 10-fold dilution steps in DMSO. Final DMSO concentration 0.1%). Remove old media by inversion into the sink quickly then add 100 ul of each dilution to corresponding well of cells for 1 hr at 37° C. Cells were then stimulated with 10 ng/mL PDGF BB ligand for 7 minutes at 37° C. The media is decanted and 150 uL of isotonic lysis buffer with protease inhibitor tablet (Complete; EDTA-free) and 0.2 mM Na vanadate is added. Cells are lysed for 15 min at 4° C. on shaker in cold room. […] Next day, beads are rinsed in 50-volumes of PBS three times and boiled in 1×LDS sample buffer (Invitrogen) for 5 minutes. Samples were run on 3-8% gradient Tris-Acetate gels (Invitrogen) and transferred onto Nitrocellulose. […] After three washes in TBS-T, membranes were incubated in Goat anti-rabbit HRP IgG (Amersham, 1:25000 dilution) for 1 hr. Three more washes followed before addition of ECL substrate. Membranes were exposed to Hyperfilm-ECL.
Regarding `CNC(=O)c1cc(Oc2ccc(NC(=O)Nc3ccc(Cl)c(C(F)(F)F)c3)c(Cl)c2)ccn1` [N-(4-chloro-3-(trifluoromethyl)phenyl)-N′-(4-(2-(N-methylcarbamoyl)-4-pyridyloxy)-2-chlorophenyl) urea], the IC50 is less than 10 µM.

The subject of the next assay is restenosis following angioplasty.
Assay: not given
To be noted: G. Bilder et al. Circulation 1999; cited from earlier work.
Take `COc1cc2ncc(-c3ccsc3)nc2cc1OC.Cl` [RPR101511A]: the “effect on restenosis following angioplasty” value is on record as “prevented angiographically defined restenosis following angioplasty”.

The subject of a further assay is neointimal formation.
Assay: not given
To be noted: rat model; M. Karck et al. 2002; cited from earlier work.
With `Cc1cc2ncc(-c3ccccc3)nc2cc1C` [AG-1295], the “effect on neointimal formation in aortic allograft vasculopathy” value was “reduce neointimal formation”.
